HELM strings list units from the 5' end as sugar, base in round brackets, then linkage (d deoxyribose, r ribose, m 2'-O-methyl, p phosphodiester). Strings are as the collection lists them; they lack the last nucleoside at the 3' end of the tested compound. [moe] = 2'-O-(2-methoxyethyl) (MOE); [sp] = phosphorothioate linkage; [m5C] = 5-methylcytosine
Target: LRRK2
Assay: mouse, dose not given
Settings: ASO

Substance | 3 h FOB score
RNA1{[moe](T)[sp].[moe](G)p.[moe](A)[sp].[moe](G)[sp].[moe](T)[sp].d(G)[sp].d([m5C])[sp].d(A)[sp].d(T)[sp].d(G)[sp].d(G)[sp].d([m5C])[sp].d(A)[sp].d(T)[sp].d([m5C])[sp].[moe](A)[sp].[moe](A)p.[moe](A)[sp].[moe](A)}$$$$ (last 3' nucleoside missing) | 5 score 0-7
RNA1{[moe](G)[sp].[moe](T)p.[moe](T)[sp].[moe](T)[sp].[moe]([m5C])[sp].d(A)[sp].d(T)[sp].d(T)[sp].d([m5C])[sp].d(G)[sp].d(G)[sp].d(T)[sp].d(T)[sp].d(A)[sp].d(T)[sp].[moe](A)[sp].[moe](A)p.[moe](G)[sp].[moe](G)}$$$$ (last 3' nucleoside missing) | 7 score 0-7
RNA1{[moe](G)[sp].[moe](T)p.[moe](T)p.[moe](T)p.[moe]([m5C])[sp].d(A)[sp].d(T)[sp].d(T)[sp].d([m5C])[sp].d(G)[sp].d(G)[sp].d(T)[sp].d(T)[sp].d(A)[sp].d(T)[sp].[moe](A)p.[moe](A)p.[moe](G)[sp].[moe](G)}$$$$ (last 3' nucleoside missing) | 7 score 0-7
RNA1{[moe](T)[sp].[moe](G)p.[moe]([m5C])p.[moe](T)p.[moe]([m5C])[sp].d(T)[sp].d([m5C])[sp].d(T)[sp].d(T)[sp].d(T)[sp].d([m5C])[sp].d(T)[sp].d([m5C])[sp].d(A)[sp].d([m5C])[sp].[moe](A)p.[moe](T)p.[moe](A)[sp].[moe]([m5C])}$$$$ (last 3' nucleoside missing) | 0 score 0-7
